According to the NIST ThermoML archive (doi:10.1016/j.fluid.2011.06.007):
Numbers after ± are expanded uncertainties.

Experiment: xn = mol fraction of the nth substance listed
Conditions: Liquid; for mass density: 298.15 K, 101.3 kPa, Vibrating tube method; for interfacial tension: 303.15 K, maximum differential bubble pressure

For `CCC(C)(C)OC` [2-methoxy-2-methylbutane] + CCCCCC, the mass density (x2 = 0) was 765.8 ± 0.14 kg/m3, the mass density (x2 = 0.038) was 761.49 ± 0.27 kg/m3 and the mass density (x2 = 0.092) was 755.29 ± 0.27 kg/m3. The mass density (x2 = 0.145) was 749.34 ± 0.27 kg/m3, the mass density (x2 = 0.194) was 743.82 ± 0.27 kg/m3 and the mass density (x2 = 0.247) was 737.76 ± 0.27 kg/m3. The mass density (x2 = 0.346) was 726.73 ± 0.27 kg/m3, the mass density (x2 = 0.443) was 715.93 ± 0.27 kg/m3 and the mass density (x2 = 0.497) was 709.95 ± 0.27 kg/m3. It also gave a mass density (x2 = 0.552) of 703.83 ± 0.27 kg/m3, a mass density (x2 = 0.597) of 698.92 ± 0.27 kg/m3 and a mass density (x2 = 0.644) of 693.78 ± 0.27 kg/m3. For the same molecule, the mass density (x2 = 0.696) was 688.15 ± 0.28 kg/m3, the mass density (x2 = 0.745) was 682.72 ± 0.28 kg/m3 and the mass density (x2 = 0.795) was 677.33 ± 0.28 kg/m3. It also gave a mass density (x2 = 0.852) of 671.14 ± 0.28 kg/m3, a mass density (x2 = 0.901) of 665.86 ± 0.28 kg/m3 and a mass density (x2 = 0.952) of 660.3 ± 0.28 kg/m3. The interfacial tension (x2 = 0) was 22 ± 0.2 mN/m, the interfacial tension (x2 = 0.051) was 21.6 ± 0.2 mN/m and the interfacial tension (x2 = 0.1) was 21.06 ± 0.2 mN/m. For the same molecule, the interfacial tension (x2 = 0.209) was 20.64 ± 0.2 mN/m, the interfacial tension (x2 = 0.305) was 20.12 ± 0.2 mN/m and the interfacial tension (x2 = 0.399) was 19.8 ± 0.2 mN/m. For the same molecule, the interfacial tension (x2 = 0.506) was 19.12 ± 0.2 mN/m, the interfacial tension (x2 = 0.611) was 18.71 ± 0.2 mN/m and the interfacial tension (x2 = 0.714) was 18.34 ± 0.2 mN/m. It also gave an interfacial tension (x2 = 0.813) of 18.02 ± 0.2 mN/m, an interfacial tension (x2 = 0.914) of 17.66 ± 0.2 mN/m and an interfacial tension (x2 = 0.96) of 17.55 ± 0.2 mN/m.

`CCCCCC` [hexane] + CCC(C)(C)OC gave a mass density (x1 = 1) of 655.19 ± 0.18 kg/m3 and an interfacial tension (x1 = 1) of 17.4 ± 0.2 mN/m.
